For 15 molecules, IC50 results are on record in the Kinase Knowledgebase extract (Sharma et al. 2016).

Assay [1] deals with EGFR (human) (UniProt P00533). Conditions: mda-mb-231.
For assay [2], the target named is EGFR (human) (UniProt P00533). Conditions: mda-mb-231. This is another data set of the same source.
Assay [3] addresses EGFR (human) (UniProt P00533). Conditions: mda-mb-361.
Assay [4] concerns the target EGFR (human) (UniProt P00533). Conditions: mda-mb-231. The source holds these as a separate data set.

EGFR (human), sequence (P00533 whole entry, looked up): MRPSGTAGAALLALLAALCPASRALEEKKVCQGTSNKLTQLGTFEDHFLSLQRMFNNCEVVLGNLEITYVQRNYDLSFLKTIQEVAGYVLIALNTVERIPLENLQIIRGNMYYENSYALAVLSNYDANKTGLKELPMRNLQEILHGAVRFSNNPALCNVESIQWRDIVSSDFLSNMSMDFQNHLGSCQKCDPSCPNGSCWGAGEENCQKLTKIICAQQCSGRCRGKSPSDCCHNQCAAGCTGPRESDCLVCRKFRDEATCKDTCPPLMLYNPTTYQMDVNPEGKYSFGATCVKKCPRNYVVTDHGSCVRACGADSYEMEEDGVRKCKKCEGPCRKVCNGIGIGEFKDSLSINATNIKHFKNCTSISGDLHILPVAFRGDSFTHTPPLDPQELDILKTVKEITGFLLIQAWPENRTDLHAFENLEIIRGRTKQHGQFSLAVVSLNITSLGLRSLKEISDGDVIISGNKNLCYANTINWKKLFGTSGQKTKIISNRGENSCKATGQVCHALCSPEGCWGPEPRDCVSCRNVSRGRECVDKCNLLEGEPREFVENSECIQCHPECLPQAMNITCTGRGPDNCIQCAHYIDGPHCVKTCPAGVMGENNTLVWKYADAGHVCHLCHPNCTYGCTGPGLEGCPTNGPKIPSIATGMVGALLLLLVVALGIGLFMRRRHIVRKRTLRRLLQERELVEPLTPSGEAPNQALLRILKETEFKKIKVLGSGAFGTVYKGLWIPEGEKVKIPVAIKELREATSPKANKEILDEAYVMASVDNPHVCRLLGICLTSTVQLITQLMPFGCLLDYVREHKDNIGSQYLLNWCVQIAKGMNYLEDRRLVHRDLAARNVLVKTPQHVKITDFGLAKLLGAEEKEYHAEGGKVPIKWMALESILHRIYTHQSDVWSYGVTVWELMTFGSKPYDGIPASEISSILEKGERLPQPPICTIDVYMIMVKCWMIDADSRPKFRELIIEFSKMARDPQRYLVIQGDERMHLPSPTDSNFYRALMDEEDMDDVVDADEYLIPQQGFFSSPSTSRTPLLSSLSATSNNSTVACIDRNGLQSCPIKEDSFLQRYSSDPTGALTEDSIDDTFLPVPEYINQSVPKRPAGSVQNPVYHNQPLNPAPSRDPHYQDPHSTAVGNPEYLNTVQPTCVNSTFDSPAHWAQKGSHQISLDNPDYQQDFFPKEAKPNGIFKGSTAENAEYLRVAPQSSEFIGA

As a reminder, the IC50 is the point on the concentration scale where inhibition reaches its midpoint. In the case of `C/C(O)=C(\C#N)C(=O)Nc1cccc(C(F)(F)F)c1`, the IC50 is greater than 100 µM at EGFR (human) [1], greater than 300 µM at EGFR (human) [2] and greater than 300 µM on EGFR (human) [3].

Consider `C/C(O)=C(\C#N)C(=O)Nc1cc(Br)ccc1Br`, for which the IC50 is greater than 100 µM at EGFR (human) [1], greater than 300 µM on EGFR (human) [2] and greater than 300 µM at EGFR (human) [3].

As to `C/C(O)=C(\C#N)C(=O)Nc1cccc(Br)c1`, the IC50 against EGFR (human) [1] is greater than 100 µM; against EGFR (human) [2] it was greater than 300 µM; against EGFR (human) [3], greater than 300 µM.

With `C/C(O)=C(\C#N)C(=O)Nc1ccc(OC(F)(F)F)cc1`, the IC50 stood at 53.4 µM at EGFR (human) [2], 26.3 µM against EGFR (human) [3] and 28.4 µM at EGFR (human) [4].

As for `C/C(O)=C(\C#N)C(=O)Nc1cccc(F)c1`, the IC50 against EGFR (human) [1] was greater than 100 µM; on EGFR (human) [2] it was greater than 300 µM; against EGFR (human) [3] it was greater than 300 µM.

For the molecule `C/C(O)=C(\C#N)C(=O)Nc1cccc(Cl)c1`, the figures for the half-inhibitory concentration (IC50) at EGFR (human) [1], against EGFR (human) [2] and against EGFR (human) [3] were greater than 100 µM, greater than 300 µM and greater than 300 µM, respectively.

As for `C/C(O)=C(\C#N)C(=O)Nc1ccccc1Cl`, the IC50 against EGFR (human) [1] is greater than 100 µM; on EGFR (human) [2], greater than 300 µM; against EGFR (human) [3], greater than 300 µM.

Regarding `C/C(O)=C(\C#N)C(=O)Nc1ccccc1C(F)(F)F`, the IC50 against EGFR (human) [1] was greater than 100 µM; on EGFR (human) [2], greater than 300 µM; at EGFR (human) [3] it was greater than 300 µM.

As to `C/C(O)=C(\C#N)C(=O)Nc1ccccc1Br`, the figures for the IC50 at EGFR (human) [1], on EGFR (human) [2] and at EGFR (human) [3] were greater than 100 µM, greater than 300 µM and greater than 300 µM, respectively.

With `C/C(O)=C(\C#N)C(=O)Nc1ccc(C(F)(F)F)cc1`, the IC50 against EGFR (human) [1] came to 5.4 µM; on EGFR (human) [2] it was 199 µM; against EGFR (human) [3], 190 µM; against EGFR (human) [4] it was 97 µM.

As for `C/C(O)=C(\C#N)C(=O)Nc1ccc(Cl)cc1`, the IC50 is greater than 100 µM on EGFR (human) [1], greater than 300 µM against EGFR (human) [2] and greater than 300 µM at EGFR (human) [3].

As to `C/C(O)=C(\C#N)C(=O)Nc1ccccc1`, the values for the IC50 at EGFR (human) [1], on EGFR (human) [2] and on EGFR (human) [3] were greater than 100 µM, greater than 300 µM and greater than 300 µM, respectively.

Take `C/C(O)=C(\C#N)C(=O)Nc1ccc(Br)cc1`: the IC50 was greater than 100 µM against EGFR (human) [1], greater than 300 µM against EGFR (human) [2] and greater than 300 µM against EGFR (human) [3].

`C/C(O)=C(\C#N)C(=O)Nc1ccc(F)cc1`: the IC50 is greater than 100 µM against EGFR (human) [1], greater than 300 µM against EGFR (human) [2] and greater than 300 µM at EGFR (human) [3].

With `C/C(O)=C(\C#N)C(=O)Nc1ccccc1F`, the IC50 against EGFR (human) [1] was 74.5 µM; on EGFR (human) [2], greater than 300 µM; at EGFR (human) [3], greater than 300 µM.
